Source: article PMC5368959, “Uricosuric targets of tranilast” (Pharmacology Research & Perspectives, 2017)
Where “and” joins values, the source holds several entries; their conditions need not be identical. Equal values may be shown once. Read-outs that look alike come from different tables or passages of the source.

Assays:
Assay type in all cases: cell-based
SMCT2 = target: T1, SMCT2 (Homo sapiens, UniProt Q1EHB4); assay: [14C]-nicotinate uptake by SMCT2-expressing Xenopus oocytes; conditions: for IC50: data not shown, read-out: IC50, SMCT2-mediated [14C]-nicotinate uptake
T1 sequence (Q1EHB4 1-618): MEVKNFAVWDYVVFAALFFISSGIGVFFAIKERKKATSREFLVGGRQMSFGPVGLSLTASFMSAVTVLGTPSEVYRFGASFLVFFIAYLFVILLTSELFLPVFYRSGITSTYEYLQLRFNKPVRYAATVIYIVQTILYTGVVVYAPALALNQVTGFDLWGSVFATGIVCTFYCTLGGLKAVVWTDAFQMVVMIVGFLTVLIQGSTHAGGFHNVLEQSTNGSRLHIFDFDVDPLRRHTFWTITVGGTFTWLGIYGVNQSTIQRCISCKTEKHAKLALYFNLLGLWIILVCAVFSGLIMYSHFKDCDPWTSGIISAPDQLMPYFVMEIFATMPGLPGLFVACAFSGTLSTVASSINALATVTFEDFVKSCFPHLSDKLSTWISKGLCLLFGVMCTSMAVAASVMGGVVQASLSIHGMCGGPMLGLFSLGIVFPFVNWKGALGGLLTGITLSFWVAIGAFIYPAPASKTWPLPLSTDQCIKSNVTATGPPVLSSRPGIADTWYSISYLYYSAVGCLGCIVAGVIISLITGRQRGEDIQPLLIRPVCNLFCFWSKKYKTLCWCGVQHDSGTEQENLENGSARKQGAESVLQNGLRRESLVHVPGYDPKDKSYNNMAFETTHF
Protocol: (§1) For uptake experiments, oocytes were washed four times with ND96 medium (pH 7.4) without pyruvate and gentamycin.
Chloride ion‐dependence was also assessed; in 0 Cl^− bath, NaCl was replaced by Na‐gluconate (Na‐Gluc), KCl by K‐gluconate (K‐Gluc), MgCl2 by Mg‐gluconate, and CaCl2 by Ca‐gluconate. […] Data are mean ± S.E. with n = 12–15.

OAT10 = OAT10 (Homo sapiens, UniProt Q9Y226); assay: [14C]-urate uptake by OAT10-expressing Xenopus oocytes; conditions: for Inhibition of OAT10-mediated urate uptake: drug 100 μmol/L, PZA-preloaded oocytes
Chain of OAT10 (Q9Y226 whole entry): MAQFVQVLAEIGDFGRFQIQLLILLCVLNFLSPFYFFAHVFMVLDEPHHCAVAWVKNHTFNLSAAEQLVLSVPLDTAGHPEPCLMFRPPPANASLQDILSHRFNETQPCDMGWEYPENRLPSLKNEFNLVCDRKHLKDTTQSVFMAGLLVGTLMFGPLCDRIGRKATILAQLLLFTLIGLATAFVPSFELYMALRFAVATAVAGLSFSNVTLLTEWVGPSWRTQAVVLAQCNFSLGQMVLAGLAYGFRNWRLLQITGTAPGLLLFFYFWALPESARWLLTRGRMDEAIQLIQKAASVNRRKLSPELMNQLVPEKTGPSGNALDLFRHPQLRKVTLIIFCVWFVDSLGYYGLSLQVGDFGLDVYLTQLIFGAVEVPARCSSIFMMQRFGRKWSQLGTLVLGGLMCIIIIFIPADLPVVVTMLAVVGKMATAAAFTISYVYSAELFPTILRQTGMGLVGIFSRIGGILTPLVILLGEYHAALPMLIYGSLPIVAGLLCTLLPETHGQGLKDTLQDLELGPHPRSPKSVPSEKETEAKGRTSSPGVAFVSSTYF
Excerpt: as §1
(A) Time course of [^14C]‐urate uptake by control and […] oocytes. […] Inset, western blot analysis of OAT10 protein expressed in oocytes. […] (C) [^14C]‐urate transport properties of OAT10: voltage sensitivity and Na+‐dependence was examined by replacing extracellular NaCl by KCl or LiCl. Existence of urate/Cl^− exchange mechanism or Cl^− dependence or cis‐inhibitory effects of extracellular Cl^− on was verified by [^14C]‐urate uptake via OAT10 in the absence of extracellular Cl^− ion (0 Cl^−). In 0 Cl^− bath, NaCl was replaced by Na‐gluconate (Na‐Gluc), KCl by K‐gluconate (K‐Gluc), MgCl2 by Mg‐gluconate, and CaCl2 by Ca‐gluconate. […] Data are mean ± S.E. with n = 12–15.

NPT1 = target: T2, NPT1 (Homo sapiens, UniProt Q14916); assay: [14C]-urate uptake by NPT1-expressing Xenopus oocytes
T2 sequence (Q14916 1-467): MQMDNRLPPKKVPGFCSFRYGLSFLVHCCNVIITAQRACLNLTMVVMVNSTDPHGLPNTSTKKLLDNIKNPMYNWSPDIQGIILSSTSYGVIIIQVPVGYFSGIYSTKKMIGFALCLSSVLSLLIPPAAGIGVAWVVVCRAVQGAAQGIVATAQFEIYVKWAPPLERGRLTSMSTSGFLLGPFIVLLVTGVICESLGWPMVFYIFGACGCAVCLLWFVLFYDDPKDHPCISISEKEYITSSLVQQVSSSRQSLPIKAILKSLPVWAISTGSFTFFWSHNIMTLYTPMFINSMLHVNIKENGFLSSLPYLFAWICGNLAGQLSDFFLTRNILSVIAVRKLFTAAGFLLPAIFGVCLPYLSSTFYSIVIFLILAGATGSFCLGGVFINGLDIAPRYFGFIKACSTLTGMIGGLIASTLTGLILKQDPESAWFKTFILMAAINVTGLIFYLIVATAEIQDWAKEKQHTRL
Protocol: as §1
The uptake of [^14C]‐urate by NPT1‐expressing oocytes was performed in ND96 medium (pH 7.4) at ~25°C for 1 h. […] Data are mean ± S.E. with n = 12–15.

GLUT9a = target: T3, GLUT9a (Homo sapiens, UniProt Q9NRM0); assay: [14C]-urate uptake by GLUT9a-expressing Xenopus oocytes; conditions: for IC50: 40 μmol/L urate, NaCl medium, read-out: IC50, GLUT9a-mediated [14C]-urate uptake
T3 sequence (Q9NRM0 1-540): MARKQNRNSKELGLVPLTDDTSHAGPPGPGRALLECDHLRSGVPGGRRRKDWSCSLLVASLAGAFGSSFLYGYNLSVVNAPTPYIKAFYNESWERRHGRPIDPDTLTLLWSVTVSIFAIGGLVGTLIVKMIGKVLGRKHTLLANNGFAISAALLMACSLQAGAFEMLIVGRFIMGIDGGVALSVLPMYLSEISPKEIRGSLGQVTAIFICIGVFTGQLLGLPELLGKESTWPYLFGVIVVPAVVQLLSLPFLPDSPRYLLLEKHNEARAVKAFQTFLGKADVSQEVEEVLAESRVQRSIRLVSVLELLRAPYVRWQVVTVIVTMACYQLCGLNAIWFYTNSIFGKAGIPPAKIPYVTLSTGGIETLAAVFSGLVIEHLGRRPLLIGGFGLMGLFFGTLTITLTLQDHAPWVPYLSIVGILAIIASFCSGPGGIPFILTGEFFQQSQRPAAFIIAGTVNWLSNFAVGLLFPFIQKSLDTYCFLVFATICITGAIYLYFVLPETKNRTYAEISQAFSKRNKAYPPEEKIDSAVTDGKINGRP
Excerpt: as §1
We sought to investigate the effect of tranilast on GLUT9a‐mediated [^14C]‐urate uptake in Xenopus laevis oocytes.

COc1ccc(C=CC(=O)Nc2ccccc2C(=O)O)cc1OC [tranilast, N‐(3,4‐dimethoxycinnamoyl) anthranilic acid]
IC50 (SMCT2): ~1000 µM and > 185 µM
IC50 (OAT10; data not shown, read-out: IC50, [14C]-urate uptake by OAT10): ~31 µM
Inhibition of OAT10-mediated urate uptake (OAT10): very efficiently inhibited
IC50 (NPT1; data not shown, read-out: IC50, [14C]-urate uptake by NPT1): ~18.9 µM
Inhibition of NPT1-mediated urate uptake (NPT1; drug 100 μmol/L): effectively inhibited
GLUT9a urate transport inhibition after washing and removal of inhibitor (GLUT9a): almost no inhibition
Inhibition of GLUT9a urate uptake (GLUT9a): efficiently inhibited
Vmax of GLUT9a-mediated urate uptake (GLUT9a): 108.4 pmoles/oocyte/h and 61 pmoles/oocyte/h
mode of inhibition of GLUT9a-mediated urate transport (GLUT9a): noncompetitive (mixed) inhibition
IC50 (GLUT9a): ~15.6 µM
Ki (GLUT9a; Eadie-Hofstee analysis, read-out: inhibition constant (Ki) for GLUT9a-mediated urate uptake): 17.1 ± 1.3 µM
IC50 for GLUT9a under membrane depolarization (GLUT9a; depolarized vs polarized, data not shown): remained unchanged

CCCN(CCC)S(=O)(=O)c1ccc(C(=O)O)cc1 [probenecid]
Inhibition of SMCT2 nicotinate uptake (SMCT2; drug 1.0 mmol/L): remained almost unaffected
inhibition at 1000 µM (OAT10; read-out: Inhibition of OAT10 urate transport activity): ~65%
Inhibition of NPT1-mediated urate uptake (NPT1; drug 1.0 mmol/L): only partially inhibited
inhibition at 1000 µM (GLUT9a; drug 1.0 mmol/L): ~60%
Reversibility of GLUT9a inhibition (GLUT9a; washout in oocytes): not reversible

CCc1oc2ccccc2c1C(=O)c1cc(Br)c(O)c(Br)c1 [benzbromarone]
IC50 (SMCT2): ~61.3 µM
IC50 (OAT10): ~20 µM
Inhibition of OAT10-mediated urate uptake (OAT10): very efficiently inhibited
IC50 (NPT1): ~17.1 µM
Inhibition of NPT1-mediated urate uptake (NPT1; drug 100 μmol/L): effectively inhibited
GLUT9a urate transport inhibition after washing and removal of inhibitor (GLUT9a): substantially inhibited
Inhibition of GLUT9a urate uptake (GLUT9a): efficiently inhibited
Reversibility of GLUT9a inhibition (GLUT9a): not reversible
IC50 (GLUT9a): ~14.2 µM
